Reference: patent US11214803B2, “Modulators of YAP1 expression” (Ionis Pharmaceuticals, Inc., priority 2019, dated 2022)
Strand notation (5' to 3'): a small letter for the sugar, then the base; units joined by * are phosphorothioate-linked, units joined directly phosphodiester-linked; [ ] holds rarer units or linkages, { } end groups; capitals alone tell only the bases. k = constrained ethyl (cEt); [5mC] = 5-methylcytosine; d = 2'-deoxy (DNA)

The substances below were run on Yap1 mRNA (assay: Antisense inhibition of human Yap1 in A-431 cells by cEt gapmers, single dose (Example 2, RTS4814)). Conditions: A-431 cells, 5,000 cells per well, free uptake, 2,000 nM modified oligonucleotide, approx. 48 hours, RTS4814, normalized to RIBOGREEN; Table 4; asterisk (*) = targets amplicon region of primer probe set.
Assay type: cell-based
How it was run: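 Read-out is Yap1 mRNA as percent of untreated cells, by real-time RT-PCR (probe set RTS4814) normalized to total RNA via RIBOGREEN. Cells were A-431 dosed with 2,000 nM gapmer without transfection for approximately 48 hours.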

Substance | YAP1 (% UTC)
716478 (kT*kA*kT*dT*dT*dT*dA*dA*dT*d[5mC]*dT*dA*dG*kT*k[5mC]*kG; antisense) [Compound 716478] | 46
716373 (k[5mC]*kA*kA*d[5mC]*dT*dG*d[5mC]*dA*dG*dA*dG*dA*dA*kG*k[5mC]*kT; antisense) [Compound 716373] | 69
716379 (k[5mC]*k[5mC]*kA*dG*dA*dA*dG*dA*dT*dG*dT*d[5mC]*dT*kT*kT*kG; antisense) [Compound 716379] | 123
716352 (k[5mC]*kT*kG*d[5mC]*dG*d[5mC]*d[5mC]*d[5mC]*d[5mC]*dG*dG*d[5mC]*dT*k[5mC]*k[5mC]*kA; antisense) [Compound 716352] | 105

Same assay, conditions: Table 5; A-431 cells, 5,000 cells per well, free uptake, 2,000 nM modified oligonucleotide, approx. 48 hours; RTS4814; normalized to RIBOGREEN; Yap1 mRNA relative to untreated control cells

Substance | YAP1 (% UTC)
716551 (k[5mC]*kG*k[5mC]*dT*dA*dG*dA*dA*dA*dA*dG*dT*dG*kT*kT*kA; antisense) [Compound 716551] | 76
716578 (kA*kA*k[5mC]*dT*dT*dT*d[5mC]*dA*d[5mC]*dA*dT*dA*dA*kA*k[5mC]*kT; antisense) [Compound 716578] | 102

Same assay, conditions: Table 6; A-431 cells, 5,000 cells per well, free uptake, 2,000 nM modified oligonucleotide, approx. 48 hours; RTS4814; normalized to RIBOGREEN; Yap1 mRNA relative to untreated control cells

Substance | YAP1 (% UTC)
716378 (kG*k[5mC]*kA*dG*dA*dG*dG*dT*dA*d[5mC]*dA*dT*d[5mC]*kA*kT*k[5mC]; antisense) [Compound 716378] | 44
716579 (kA*kT*kA*dG*dA*dG*dA*dT*dT*dT*dT*d[5mC]*d[5mC]*k[5mC]*kT*k[5mC]; antisense) [Compound 716579] | 84
716576 (kT*kG*kT*d[5mC]*dA*dG*dT*dT*dA*dT*d[5mC]*d[5mC]*dT*kA*kT*k[5mC]; antisense) [Compound 716576] | 52
716522 (antisense kG*kT*kG*dA*d[5mC]*dT*dG*dA*dA*dA*d[5mC]*dT*d[5mC]*kT*kA*kG) [Compound 716522] | 47

Same assay, conditions: Table 18; A-431 cells, 5,000 cells per well, free uptake, 2,000 nM modified oligonucleotide, approx. 48 hours; RTS4814; normalized to RIBOGREEN; Yap1 mRNA as percent of untreated control

Substance | YAP1 (% UTC)
1075236 (antisense kT*kA*kT*dA*dA*dT*dA*d[5mC]*d[5mC]*dA*d[5mC]*dA*dA*kA*kG*kT) [Compound 1075236] | 81
1076100 (kA*kA*kT*dA*dA*dG*dG*dG*dA*d[5mC]*dT*dA*d[5mC]*kT*kT*kT; antisense) [Compound 1076100] | 65
1074788 (kT*k[5mC]*kA*dA*d[5mC]*d[5mC]*dA*dT*dA*dA*dG*dT*dA*kG*kA*kT; antisense) [Compound 1074788] | 25
1074340 (antisense kT*k[5mC]*k[5mC]*d[5mC]*dG*dG*dG*dA*dG*dA*dA*dG*dA*k[5mC]*kA*k[5mC]) [Compound 1074340] | 120
1074276 (antisense k[5mC]*k[5mC]*kA*dA*dG*dA*dG*dG*dT*dG*dG*dT*d[5mC]*kT*kT*kG) [Compound 1074276] | 87

Same assay, conditions: Table 19; A-431 cells, 5,000 cells per well, free uptake, 2,000 nM modified oligonucleotide, approx. 48 hours; RTS4814; normalized to RIBOGREEN; Yap1 mRNA as percent of untreated control

Substance | YAP1 (% UTC)
1074981 (antisense kT*kT*kA*dT*dT*dG*d[5mC]*d[5mC]*dA*dG*dT*dT*d[5mC]*kT*kT*kG) [Compound 1074981] | 9
1075109 (antisense kA*k[5mC]*kT*dA*dA*dA*dA*dA*d[5mC]*dA*dT*dT*dG*kT*kG*kG) [Compound 1075109] | 71
1075493 (antisense kA*kG*kA*d[5mC]*dA*dA*dG*dG*dG*dA*dT*dG*d[5mC]*kT*kA*kA) [Compound 1075493] | 67
1076133 (k[5mC]*kA*kT*dA*d[5mC]*dT*dA*dA*dT*dT*dT*dG*dG*kT*kA*kA; antisense) [Compound 1076133] | 60

Same assay, conditions: Table 20; Yap1 mRNA, percent of untreated control; 3-10-3 cEt gapmers targeting SEQ ID NO.: 1 and 2

Substance | YAP1 (% UTC)
1074278 (antisense k[5mC]*kT*kT*dG*dG*dG*dT*d[5mC]*dT*dA*dG*d[5mC]*d[5mC]*kA*kA*kG) [Compound 1074278] | 31
1075270 (antisense k[5mC]*kT*kT*dT*dA*dT*dT*dA*dA*d[5mC]*d[5mC]*dT*dG*kG*kA*kG) [Compound 1075270] | 18
1074310 (antisense kT*k[5mC]*k[5mC]*dG*d[5mC]*dA*dT*dT*dG*d[5mC]*d[5mC]*dT*dG*kT*kG*kG) [Compound 1074310] | 100
1076006 (kT*kT*kT*dA*dA*dA*d[5mC]*d[5mC]*dT*dG*dA*dG*dA*k[5mC]*kT*k[5mC]; antisense) [Compound 1076006] | 41
1075622 (kT*k[5mC]*kT*dT*dA*dT*dA*d[5mC]*d[5mC]*dT*dA*dT*d[5mC]*kT*kT*k[5mC]; antisense) [Compound 1075622] | 56

Same assay, conditions: Table 21; Yap1 mRNA, percent of untreated control; 3-10-3 cEt gapmers targeting SEQ ID NO.: 1 and 2

Substance | YAP1 (% UTC)
1075847 (k[5mC]*kT*kT*dT*dA*dT*dA*dG*d[5mC]*dA*dG*dA*dT*kG*k[5mC]*k[5mC]; antisense) [Compound 1075847] | 14
1074887 (antisense kT*kA*kG*d[5mC]*d[5mC]*dT*dG*dA*dA*dG*d[5mC]*dA*dA*kG*kT*kT) [Compound 1074887] | 57

Same assay, conditions: Table 22; Yap1 mRNA as percent of untreated control; 3-10-3 cEt gapmers; single dose

Substance | YAP1 (% UTC)
1074280 (antisense kG*kG*kT*d[5mC]*dA*dA*dG*d[5mC]*d[5mC]*dT*dT*dG*dG*kG*kT*k[5mC]) [Compound 1074280] | 43
1074888 (antisense kG*kT*kT*dT*dA*dG*d[5mC]*d[5mC]*dT*dG*dA*dA*dG*k[5mC]*kA*kA) [Compound 1074888] | 58
1076552 (antisense kA*kT*kG*dT*dA*dT*dA*dA*dA*dT*dA*d[5mC]*d[5mC]*kA*kG*kG) [Compound 1076552] | 7

Same assay, conditions: Table 23; Yap1 mRNA as percent of untreated control; 3-10-3 cEt gapmers; single dose

Substance | YAP1 (% UTC)
1076201 (k[5mC]*kT*kA*dA*dA*dA*dA*dG*dA*d[5mC]*dA*dG*dG*kG*k[5mC]*k[5mC]; antisense) [Compound 1076201] | 99
1076169 (k[5mC]*kT*kA*d[5mC]*dT*dA*dT*dA*dT*d[5mC]*dT*dT*dT*kG*kG*kG; antisense) [Compound 1076169] | 10
1075113 (antisense kT*kA*kT*dA*dA*dA*dT*dA*d[5mC]*d[5mC]*dA*dG*dG*kT*kA*k[5mC]) [Compound 1075113] | 67
1074889 (antisense kA*kG*kT*dT*dT*dA*dG*d[5mC]*d[5mC]*dT*dG*dA*dA*kG*k[5mC]*kA) [Compound 1074889] | 42

Same assay, conditions: Table 25; Yap1 mRNA as percent of untreated control; 3-10-3 cEt gapmers targeting SEQ ID NO.: 1, and 2

Substance | YAP1 (% UTC)
1074603 (antisense kT*kT*k[5mC]*d[5mC]*dA*dG*d[5mC]*dT*dA*dA*d[5mC]*dT*d[5mC]*kA*kA*kA) [Compound 1074603] | 17
1074923 (antisense kG*kG*kG*d[5mC]*dG*dG*dT*dA*dA*d[5mC]*dT*d[5mC]*dT*kT*k[5mC]*kT) [Compound 1074923] | 73
1075275 (antisense k[5mC]*kT*kA*dG*dA*dA*dA*dG*dG*d[5mC]*d[5mC]*dA*dT*kG*kT*kA) [Compound 1075275] | 76

Same assay, conditions: Table 32; Yap1 mRNA, percent of untreated control; 3-10-3 cEt gapmers targeting SEQ ID NO.: 1, and 2

Substance | YAP1 (% UTC)
1075122 (kG*kA*kA*dA*dA*dT*dT*dA*dG*d[5mC]*d[5mC]*dT*dA*k[5mC]*k[5mC]*kA; antisense) [compound 1075122] | 16

Same assay, conditions: Table 33; Yap1 mRNA, percent of untreated control; 3-10-3 cEt gapmers targeting SEQ ID NO.: 1, and 2

Substance | YAP1 (% UTC)
1074387 (k[5mC]*k[5mC]*kA*dG*dG*dA*dA*dT*dG*dG*d[5mC]*dT*dT*k[5mC]*kA*kA; antisense) [compound 1074387] | 32
1075315 (antisense k[5mC]*kA*kT*dA*dA*d[5mC]*dT*dT*dG*dA*dT*dG*dA*k[5mC]*kT*k[5mC]) [compound 1075315] | 27
1074739 (kG*kA*k[5mC]*dT*d[5mC]*dT*dT*dA*dG*dG*dT*d[5mC]*dT*k[5mC]*k[5mC]*kT; antisense) [compound 1074739] | 24

Same assay, conditions: Yap1 mRNA as percent of untreated control; A-431 cells; 3-10-3 cEt gapmers targeting SEQ ID NO.: 1, and 2; Table 30

Substance | YAP1 (% UTC)
1074256 (antisense k[5mC]*kA*k[5mC]*dT*dG*dG*dT*dG*dG*dA*d[5mC]*dT*dG*kG*kT*kG) [compound 1074256] | 64
1075760 (kG*kA*kG*dA*dA*dA*dA*dA*d[5mC]*dT*dA*d[5mC]*dG*kG*kA*kT; antisense) [compound 1075760] | 39

Same assay, conditions: Yap1 mRNA as percent of untreated control; A-431 cells; 3-10-3 cEt gapmers targeting SEQ ID NO.: 1, and 2; Table 31

Substance | YAP1 (% UTC)
1076337 (antisense kA*kT*kT*dA*dA*dA*d[5mC]*d[5mC]*dA*dG*dG*dG*dA*k[5mC]*kT*kG) [compound 1076337] | 25
1074129 (k[5mC]*k[5mC]*k[5mC]*dG*dG*d[5mC]*dT*d[5mC]*d[5mC]*dA*d[5mC]*dT*dG*kG*kT*k[5mC]; antisense) [compound 1074129] | 77
1075537 (k[5mC]*kT*kT*dT*dA*dA*dT*dT*dA*d[5mC]*d[5mC]*d[5mC]*dA*kA*kG*kG; antisense) [compound 1075537] | 82
